The source of these data is patent publication US20240036032A1, “PREDICTIVE IN VITRO ASSAY MIMICKING IN VIVO PHARMACOLOGY” (MIMI-Q GMBH, priority 2020, published 2024).

The nature of data set [1]: Clinical pharmacokinetics parameters of mFOLFOX6 active substances from published data. The data set is classed as in vivo, Humans. The following applies: 5-fluorouracil bolus, sequence number 2, calculated to a dose of 400 mg/m^2 assuming linear kinetics. How it is done:
Pharmacokinetics parameters for all substances presented in Table 3 were identified based on published data. Substances of administration 1 (Oxaliplatin) and 2 (5-Fluorouracil) present simultaneously in the body, so time point of addition of 2 (5-Fluorouracil) was selected in a timeframe of selected incubation time for 1 (Oxaliplatin). Substances of administration 2 (5-Fluorouracil) and 3 (5-Fluorouracil) also present simultaneously in the body, so time point of addition of 3 (5-Fluorouracil) was selected in a timeframe of selected duration of exposure for 2 (5-Fluorouracil).

The conditions of data set [2]: cited from earlier work.
For a further data set, the system named is colon cancer organoids. Kind of data set: Half growth inhibitory concentration (GI50): serial dilutions, 72 hours, MTS assay. The data set is classed as cell-based, human (patient). Here is the method:
A patient was diagnosed with colon cancer and mFOLFOX6 chemotherapeutic treatment was prescribed. To obtain primary organoid culture of colon cancer cells a sample of resected lung metastasis was used. Tissue was cut into small fragments and placed immediately into MACS tissue storage solution (Miltenyi Biotec, Germany) and stored for no more than 24 hours at 4° C. Then, the tissue fragments were transferred to a tube for tissue homogenization gentleMACS C Tube (Miltenyi Biotec, Germany) and enzyme cocktail from Tumor Dissociation Kit human (Miltenyi Biotec, Germany) consisting of 2.2 ml of DMEM/F-12 culture medium (Thermo Fisher Scientific, USA), 100 μl of Enzyme H solution (Miltenyi Biotec, Germany), 50 μl of Enzyme R solution (Miltenyi Biotec, Germany) and 12.5 μl of Enzyme A solution (Miltenyi Biotec, Germany) was added to the same tube. Then the tube was tightly closed with a lid and placed in gentleMACS Octo Dissociator (Miltenyi Biotec, Germany). For tissue dissociation, the “37C_h_TDK_3” program was used. […]
Organoids were diluted in Matrigel Growth Factor Reduced (GFR) Basement Membrane Matrix (Corning, USA) and seeded into 96-well plate (TPP, Switzerland). […] Relative number of cells was measured with MTS assay CellTiter 96 Aqueous One Solution Cell Proliferation Assay kit (Promega, USA) according to the manufacturer's instructions (FIG. 2). […]
In general terms: Formazan colour is commonly taken as a measure of viable cells.

For data set [3] the following is noted: NCI Database; cited from earlier work.
Data set [4] has as its system chemo-resistant metastatic CRC. Particulars: absence of genetic selection; cited from earlier work.
The mark [5] stands for this setting: 5-fluorouracil continuous infusion, sequence number 3.
Setting [6] is: oxaliplatin infusion, mFOLFOX6, sequence number 1.

Like-named read-outs stand apart in the source and are kept apart here. Marks after values point to notes of the source that are not given here.

With `O=c1[nH]cc(F)c(=O)[nH]1` [5-Fluorouracil, 5-fluorouracil], the Area under curve in data set [1] is 82.1* μM·; in data set [2] (setting [5]), 156.4 µM. In addition, the Cmax (commonly the highest concentration seen after dosing) is 273 µM in data set [1] (human, in vivo, intravenous, 400 mg/m2) and 5.5 µM in data set [2] (setting [5]). The “sensitivity of organoids judged from GI50” value in the data set on colon cancer organoids (Example 3, FIG. 3b) is on record as “sensitive”. In addition, the GI50 (as a rule, the concentration giving 50% growth inhibition) with colon cancer organoids (Homo sapiens, Example 3, organoids from resected lung metastasis, 72 hours incubation) is 2260 nM.
For the compound `Nc1nc2c(c(=O)[nH]1)N(C=O)C(CNc1ccc(C(=O)N[C@@H](CCC(=O)O)C(=O)O)cc1)CN2` (stereo partly shown) [Leucovorin, Leucovorin Calcium (Folinic Acid)], the “direct cytotoxic or cytostatic effect” value in data set [3] is reported as “does not possess direct cytotoxic or cytostatic effect”.
Regarding `O=C1[O][Pt]2([NH][C@@H]3CCCC[C@H]3[NH]2)[O]C1=O` [Oxaliplatin], in data set [2] (setting [6]), the Area under curve is 6.8 µM and the Cmax is 3.6 µM.
As for panitumumab: anti-EGFR therapy drug, in data set [4], the “patients responding to anti-EGFR therapy” value is recorded as 10%.
